Results reported in US10167292B2, “Benzodiazepines as bromodomain inhibitors” (Catalyst Therapeutics Pty Ltd, priority 2015, dated 2019).
pIC50: −log10 of the molar value.

What was measured:
[1] = target: BRD-3 (Domain 1) (Homo sapiens (Human), UniProt Q15059); experiment: AlphaScreen BRD binding assay, BRD-3 (Domain 1); settings: acetyl-histone H4 peptide 2.5 nM, protein 80 nM
Procedure: (§1) Biological Characterization Assay Conditions Binding Assay
BRD binding and inhibition was assessed by measuring the interaction of biotinylated acetyl-histone H4 peptide (Anaspec #64989) with the BRD target protein utilising AlphaScreen® technology (Perkin Elmer). In a white 384-well low volume plate (Greiner #784076), 100 nL of compound series in DMSO (0.5% final concentration) was added to the BRD target protein (80 nM final). After 30 min incubation at RT, H4 peptide was added to a final concentration of 2.5 nM. AlphaScreen streptavidin donor beads and AlphaScreen nickel chelate acceptor beads were added to a final concentration of 10 ug/mL each and allowed to incubate in a darkened environment for 1 h at RT. Plates were read on an EnVision plate reader (Perkin Elmer) and IC50's calculated using a four parameter non-linear curve fit.
These conditions are identical for all BRDs screened except BRD2D2 which uses 160 nM protein and 1.25 nM peptide.

[2] = test system: HL-60; experiment: Cell proliferation assay (CellTiter-Glo), HL-60; format: cell-based; settings: Homo sapiens, HL-60 cells, 72 h
Procedure: (§2) The cells were prepared in the required fashion (suspension or adherent). The cells were initially washed once in the culture medium that they would be finally treated in. Following this 10 ml of the test medium was added and the cells. The mixture was pipetted gently several times.
(§3) The cells were counted and then the volume was spun down to the volume necessary for the total number of cells needed. The cells were then resuspended in the appropriate test medium to the desired concentration. In general, the final concentration of non-adherent cells was 2×10^5 cells/ml i.e. 10,000 cells per 50 μ1. Once the desired concentration had been reached, 50 µl of the cells were added to the appropriate wells and the cells were incubated for 72 h at 37° C.
(§4) CellTiter-Glo Luminescent Assay (Kit G7571—See Promega's Instruction Manual for Additional Details):
(§5) Both reagents were pre-warmed to RT. The buffer was thawed in a 37° C. water bath until it had just completely thawed. It was then left on a bench at RT for at least 30 min.
(§6) Following this the substrate and buffer were mixed together. To ensure that the substrate was dissolved, the mixture was inverted several times.
(§7) The cell culture plates were removed from the incubator and were then allowed to adjust to RT for at least 30 min.
(§8) Afterwards 40 μL of the reagent was added to 100 μL of the culture medium. […] The plates were then incubated for 10 min on the bench. The luminescence could then be read using a luminescence plate reader.

[3] = test system: MV4; 11; experiment: Cell proliferation assay (CellTiter-Glo), MV4;11; format: cell-based; settings: Homo sapiens, MV4;11 cells, 72 h
Procedure: as §2, §3, §4, §5, §6, §7, §8

[4] = target: BRD-4 (Domain 1) (Homo sapiens (Human), UniProt O60885); experiment: AlphaScreen BRD binding assay, BRD-4 (Domain 1); settings: acetyl-histone H4 peptide 2.5 nM, protein 80 nM
Procedure: as §1
(§9) AlphaScreen streptavidin donor beads and AlphaScreen nickel chelate acceptor beads were added to a final concentration of 10 ug/mL each and allowed to incubate in a darkened environment for 1 h at RT. Plates were read on an EnVision plate reader (Perkin Elmer) and IC50's calculated using a four parameter non-linear curve fit.

[5] = target: BRD-4 (Domain 2) (Homo sapiens (Human), UniProt O60885); experiment: AlphaScreen BRD binding assay, BRD-4 (Domain 2); settings: acetyl-histone H4 peptide 2.5 nM, protein 80 nM
Procedure: as §1, §9

[6] = target: BRD-2 (Domain 1) (Homo sapiens (Human), UniProt P25440); experiment: AlphaScreen BRD binding assay, BRD-2 (Domain 1); settings: acetyl-histone H4 peptide 2.5 nM, protein 80 nM
BRD-2 (Domain 1), sequence (P25440 74-180): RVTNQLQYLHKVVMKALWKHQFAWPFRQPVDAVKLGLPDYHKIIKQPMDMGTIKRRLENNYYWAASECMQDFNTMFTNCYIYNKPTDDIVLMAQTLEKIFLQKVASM
Procedure: as §1, §9

[7] = target: BRD-2 (Domain 2) (Homo sapiens (Human), UniProt P25440); experiment: AlphaScreen BRD binding assay, BRD-2 (Domain 2); settings: 160 nM protein and 1.25 nM peptide
BRD-2 (Domain 2), sequence (P25440 344-453): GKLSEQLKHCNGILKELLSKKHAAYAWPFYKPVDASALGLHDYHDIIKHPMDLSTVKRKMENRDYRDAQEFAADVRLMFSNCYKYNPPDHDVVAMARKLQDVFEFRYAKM
Procedure: as §1, §9

BRD-3 (Domain 1), sequence (Q15059 34-140): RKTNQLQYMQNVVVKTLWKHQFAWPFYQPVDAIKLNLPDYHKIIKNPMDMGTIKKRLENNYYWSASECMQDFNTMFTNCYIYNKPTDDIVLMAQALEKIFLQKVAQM

`Cc1nnn2c1-c1ccc(C(=O)NC(C)c3ccccc3)cc1N(c1ccc(Cl)cc1)CC2` (stereo in doubt) [Example 35, 7-(4-chlorophenyl)-1-methyl-N—((R)-1-phenylethyl)-6,7-dihydro-5H-benzo[f][1,2,3]triazolo[1,5-d][1,4]diazepine-9-carboxamide] was tested. Which pIC50 [1] did it give?
Its pIC50 is over 7.00.

And the pIC50 [2]?
Its pIC50 is over 6.00.

What about the pIC50 [3] of the same compound?
The pIC50 was over 6.00.

Which results are given for `Cc1nnn2c1-c1ccc(C(=O)NC(C)c3ccccc3)cc1N(c1ccc(Cl)cc1)CC2` (stereo in doubt) [Example 39, 7-(4-chlorophenyl)-1-methyl-N—((S)-1-phenylethyl)-6,7-dihydro-5H-benzo[f][1,2,3]triazolo[1,5-d][1,4]diazepine-9-carboxamide]?
pIC50 [1]: > 7.00; pIC50 [2]: > 6.00; pIC50 [3]: > 6.00

How did the pIC50 [1] turn out when `Cc1ccc(-c2ccc3c(c2)N(c2ccc(Cl)cc2)CCn2nnc(C)c2-3)cn1` [Example 7, 7-(4-Chlorophenyl)-1-methyl-9-(6-methylpyridin-3-yl)-6,7-dihydro-5H-benzo[f][1,2,3]triazolo[1,5-d][1,4]diazepine] was run?
The pIC50 was over 7.00.

And the pIC50 [4]?
Its pIC50 is over 7.00.

What about the pIC50 [5] of the same compound?
The pIC50 was over 7.00.

And the pIC50 [2]?
The pIC50 was over 6.00.

What about the pIC50 [3] of the same compound?
The pIC50 was over 6.00.

`Cc1nnn2c1-c1ccc(-c3ccc(N)nc3)cc1N(c1ccc(Cl)cc1)CC2` [Example 8, 5-(7-(4-Chlorophenyl)-1-methyl-6,7-dihydro-5H-benzo[f][1,2,3]triazolo[1,5-d][1,4]diazepin-9-yl)pyridin-2-amine] was tested. Which pIC50 [1] did it give?
The pIC50 was over 7.00.

What about the pIC50 [4] of the same compound?
The pIC50 was over 7.00.

And the pIC50 [5]?
Its pIC50 is over 7.00.

And the pIC50 [2]?
The pIC50 was over 6.00.

And the pIC50 [3]?
Its pIC50 is over 6.00.

`Cc1nnn2c1-c1ccc(-c3cc[nH]n3)cc1N(c1ccc(Cl)cc1)CC2` [Example 10, 7-(4-Chlorophenyl)-1-methyl-9-(1H-pyrazol-3-yl)-6,7-dihydro-5H-benzo[f][1,2,3]triazolo[1,5-d][1,4]diazepine] was tested. Which pIC50 [1] did it give?
Its pIC50 is over 7.00.

What about the pIC50 [4] of the same compound?
The pIC50 was over 7.00.

And the pIC50 [5]?
Its pIC50 is over 7.00.

What about the pIC50 [2] of the same compound?
The pIC50 was over 6.00.

And the pIC50 [3]?
Its pIC50 is over 6.00.

With `Cc1nnn2c1-c1ccc(C(=O)O)cc1N(c1ccc(Cl)cc1)CC2` [Example 32, 7-(4-chlorophenyl)-1-methyl-5,6-dihydrotriazolo[1,5-d][1,4]benzodiazepine-9-carboxylic acid] as the compound, how does the pIC50 [6] read?
The pIC50 was 6.00 to 7.00.

What about the pIC50 [7] of the same compound?
Its pIC50 is over 7.00.

And the pIC50 [1]?
Its pIC50 is over 7.00.

What about the pIC50 [2] of the same compound?
Its pIC50 is under 5.30.

What about the pIC50 [3] of the same compound?
The pIC50 was over 6.00.

With `Cc1nnn2c1-c1ccc(C(=O)Nc3ccccc3)cc1N(c1ccc(Cl)cc1)CC2` [Example 36, 7-(4-chlorophenyl)-1-methyl-N-phenyl-6,7-dihydro-5H-benzo[f][1,2,3]triazolo[1,5-d][1,4]diazepine-9-carboxamide] as the compound, how does the pIC50 [1] read?
The pIC50 was over 7.00.

What about the pIC50 [2] of the same compound?
The pIC50 was over 6.00.

What about the pIC50 [3] of the same compound?
The pIC50 was over 6.00.

What does the source list for `Cc1nnn2c1-c1ccc(C(=O)NS(=O)(=O)c3ccccc3)cc1N(c1ccc(Cl)cc1)CC2` [Example 40, 7-(4-chlorophenyl)-1-methyl-N-(phenylsulfonyl)-6,7-dihydro-5H-benzo[f][1,2,3]triazolo[1,5-d][1,4]diazepine-9-carboxamide]?
pIC50 [6]: > 7.00; pIC50 [7]: > 7.00; pIC50 [1]: > 7.00; pIC50 [4]: > 7.00; pIC50 [5]: > 7.00; pIC50 [2]: < 5.30; pIC50 [3]: 5.30 to 6.00

`Cc1nnn2c1-c1ccc(C(=O)N[C@@H](C)c3ccc(F)cc3)cc1N(c1ccccc1)CC2` [Example 43] was tested. Which pIC50 [6] did it give?
Its pIC50 is over 7.00.

And the pIC50 [7]?
The pIC50 was over 7.00.

And the pIC50 [4]?
Its pIC50 is over 7.00.

And the pIC50 [5]?
The pIC50 was over 7.00.

And the pIC50 [2]?
The pIC50 was over 6.00.

What about the pIC50 [3] of the same compound?
Its pIC50 is over 6.00.

With `Cc1nnn2c1-c1ccc(C(=O)NOCCO)cc1N(c1ccc(Cl)cc1)CC2` [Example 45, 7-(4-Chlorophenyl)-N-(2-hydroxyethoxy)-1-methyl-6,7-dihydro-5H-benzo[f][1,2,3]triazolo[1,5-d][1,4]diazepine-9-carboxamide] as the compound, how does the pIC50 [6] read?
The pIC50 was over 7.00.

What about the pIC50 [7] of the same compound?
Its pIC50 is over 7.00.

What about the pIC50 [4] of the same compound?
The pIC50 was over 7.00.

And the pIC50 [5]?
The pIC50 was over 7.00.

And the pIC50 [2]?
The pIC50 was over 6.00.

What about the pIC50 [3] of the same compound?
Its pIC50 is over 6.00.

How did the pIC50 [6] turn out when `CONC(=O)c1ccc2c(c1)N(c1ccc(Cl)cc1)CCn1nnc(C)c1-2` [Example 46, 7-(4-chlorophenyl)-N-methoxy-1-methyl-6,7-dihydro-5H-benzo[f][1,2,3]triazolo[1,5-d][1,4]diazepine-9-carboxamide] was run?
Its pIC50 is over 7.00.

And the pIC50 [7]?
Its pIC50 is over 7.00.

And the pIC50 [4]?
Its pIC50 is over 7.00.

And the pIC50 [5]?
The pIC50 was over 7.00.

What about the pIC50 [2] of the same compound?
The pIC50 was over 6.00.

What about the pIC50 [3] of the same compound?
The pIC50 was over 6.00.
